According to patent US20250288588A1, “SUBSTITUTED IMIDAZOPYRIDINES AND IMIDAZOPYRIMIDINES, AND USE OF SAME FOR TREATING, AMELIORATING, AND/OR PREVENTING RETINAL DEGENERATION” (Yale University, priority 2022, published 2025):

Legend:
Format in all cases: cell-based
[1] = system: Human ARPE-19 cells; assay: TBHP oxidative stress-induced cell death, cell viability (RealTime-Glo MT); details: for cell viability after exposure to TBHP / protection from oxidative stress-induced cell death: p<0.0001; for protection from oxidative stress-induced cell death: FIG. 3, 0.6 μM compound preincubated 24 hours
Procedure: Immortalized human RPE cells (ARPE-19) obtained from the American Type Culture Collection (ATCC, Manassas, VA, USA) were cultured in Dulbecco's modified Eagle's medium (DMEM; Thermo Fisher Scientific, Waltham, MA) containing 10% fetal bovine serum (FBS), 100 IU/mL penicillin, 100 μg/mL streptomycin, 100 μg/mL gentamicin, and 2.5 μg/mL amphotericin B (Thermo Fisher Scientific).
Human ARPE-19 cells were plated in 96-well plates for 24 hours in DMEM supplemented with FBS and antibiotics. ARPE-19 cells were preincubated with either ciclopirox olamine (Sigma), compound 414 (Chemical Diversity, San Diego, CA), compound 434 (Chemical Diversity) or no compound for 24 hours and then exposed to varying concentrations of tert-butyl hydroperoxide (TBHP; Sigma-Aldrich, St. Louis, MO) the next day for 24 hours. Cell viability was measured the following day by RealTime-Glo™ MT cell viability assay (Promega, Madison, WI) using a BioTek FLx800™ fluorescence reader (BioTek, Winooski, VT).
Human ARPE-19 cells (CRL-2302; American Type Culture Collection) were preincubated with 0.9 μM of DH381-2 and DH421 for 24 hours and then exposed to 300 μM tert-butyl hydroperoxide (TBHP) to induce cell death for 24 hours.
Human ARPE-19 cells (CRL-2302; American Type Culture Collection) were preincubated with 0.9 μM of DH421 for 24 hours and then exposed to 250 μM tert-butyl hydroperoxide (TBHP) to induce cell death for 24 hours.
Human ARPE-19 cells (CRL-2302; American Type Culture Collection) with preincubated with 0.6 μM of compound DH421 or DH381-2 for 24 hours and then exposed to 300 μM tert-butyl hydroperoxide (TBHP) to induce cell death for 24 hours. Protective effects on human ARPE-19 cells treated with DH421 and DH381-2. **** p<0.0001.

[2] = system: Human ARPE-19 cells; assay: Blue light damage, cell viability (RealTime-Glo MT); details: FIG. 4, 0.6 μM compound preincubated 24 hours, then blue light 156.7 LUX for 36 hours
Procedure: Human ARPE-19 cells were plated in 96-well plates for 24 hours in DMEM supplemented with FBS and antibiotics. The cells were preincubated with drug for 24 hours and then exposed to blue light (156.7 LUX for 36 hours). Cell viability was measured after 36 hours of blue light exposure using RealTime-Glo MT assays (Promega) with a BioTek FLx800 fluorescence reader (Bio Tek, Winooski, VT).
Human ARPE-19 cells (CRL-2302; American Type Culture Collection) were preincubated with 0.6 μM of compound DH421 or DH381-2 for 24 hours and then exposed to blue light (156.7 LUX for 36 hours). Protective effect of compound DH421 or DH381-2 on human ARPE-19 cells exposed to blue light (156.7 LUX for 36 hours). * p<0.05, *** p<0.01.

[3] = system: Human RPE cells; assay: Blue light damage, cell viability; details: FIG. 7, 0.6 μM compound preincubated 24 hours, then blue light 156.7 LUX for 36 hours
Procedure: Human RPE cells were preincubated with 0.6 μM of compound DH421 or DH381-2 for 24 hours and then exposed to blue light (156.7 LUX for 36 hours). Protective effect of compound DH421 or DH381-2 on human RPE cells exposed to blue light (156.7 LUX for 36 hours). * p<0.05, *** p<0.01.

[4] = system: Human ARPE-19 cells; assay: Cell viability on nitrite-modified extracellular matrix (ECM); details: FIG. 5, 1 μM, 3 μM, and 10 μM compound, seeded onto nitrite-modified ECM for 24 hours
Procedure: Immortalized human RPE (ARPE-19) cells were obtained from the ATCC, cultured, and maintained in DMEM (Invitrogen-Gibco, Life Technologies) containing 10% FBS, 100 IU/mL penicillin, 100 μg/mL streptomycin, and 100 μg/mL gentamicin (Invitrogen-Gibco, Life Technologies). These cells were incubated in a humidified atmosphere of 5% CO2 and 95% air at 37° C. ARPE-19 cells were grown on 24-well Transwell® permeable supports (Corning, Inc.) in 12-well plates or flat bottom 24-well plates for 6-8 weeks to allow the ECM to form. ARPE-19 cells were then removed by the addition of 20 mM ammonium hydroxide buffer for 20 min, and the ECM was washed with phosphate buffered saline (PBS). PBS was removed from the RPE-ECM plates and dried. Subsequently, 100 mM sodium nitrite was added to the ECM and incubated at 37° C. for 7 days. Plates were then washed with PBS and incubated with PBS for 4 hours. Finally, plates were washed with PBS to completely remove the nitrite. Cells are preincubated with drug for 24 hours and then seeded on nitrite-modified ECM for 24 hours. Cell viability was measured using RealTime-Glo MT assays (Promega) with a BioTek FLx800 fluorescence reader (Bio Tek, Winooski, VT). […]

[5] = system: Human RPE cells; assay: as above; details: FIG. 8, 1 μM compound, seeded onto nitrite-modified ECM for 24 hours, p<0.05
Procedure: Human RPE cells were treated with 1 μM of compound DH421 or DH381-2 and then seeded onto nitrite-modified ECM and untreated (normal) ECM for 24 hours. Protective effects of compound DH421 or DH381-2 on RPE cells seeded onto nitrite-modified ECM. *p<0.05.

[6] = system: Human RPE cells; assay: TBHP oxidative stress-induced cell death, cell viability; details: FIG. 6, 0.6 μM compound preincubated 24 hours, then 300 μM TBHP 24 hours, p<0.0001
Procedure: Human RPE cells were preincubated with 0.6 μM of compound DH421 or DH381-2 for 24 hours and then exposed to 300 μM tert-butyl hydroperoxide (TBHP) to induce cell death for 24 hours. Protective effects on human RPE cells treated with DH421 and DH381-2. **** p<0.0001.

[7] = system: Human RPE cells; assay: Mitochondrial function after TBHP (oxygen consumption rate, Seahorse XF analyzer); details: FIGS. 9A-9B, 1 μM compound preincubated 18 hours, then 300 μM TBHP 24 hours; for ATP production compared to TBHP-treated group: p<0.001
Procedure: Human RPE cells were preincubated with 1 μM of compound DH381-2 and DH421 for 18 hours and then treated with 300 μM tert-butyl hydroperoxide (TBHP) for 24 hours. Oxygen consumption rate (OCR) was determined by Seahorse XF analyzer to measure mitochondrial function.

[8] = system: Human RPE cells; assay: CellTox Green Cytotoxicity Assay; details: FIG. 10, 1 μM compound preincubated 24 hours
Procedure: Human RPE cells were preincubated with 1 μM of compound DH381-2 and DH421 for 24 hours. Cell toxicity was measured by CellTox Green Cytotoxicity Assay in human RPE cells after treatment with TBHP and compounds DH381-2 and DH421.

[9] = FIG. 1, 0.9 μM compound preincubated 24 hours, then 300 μM TBHP 24 hours

Row | SMILES | cell viability after exposure to TBHP [1, 9] | protection from oxidative stress-induced cell death ([1]; then 300 μM TBHP 24 hours) | protection from blue light damage [2] | protection from blue light damage [3] | cell viability on nitrite-modified ECM [4] | cell viability on nitrite-modified ECM [5] | protection from oxidative stress-induced cell death [6] | mitochondrial function (oxygen consumption rate) after oxidative stress [7] | ATP production compared to TBHP-treated group [7] | cytotoxicity level [8] | effect on cell growth suppression ([1]; FIG. 2, 0.9 μM compound) | cell viability after exposure to TBHP ([1]; FIG. 2, 0.9 μM compound preincubated 24 hours, then 250 μM TBHP 24 hours)
1 | Oc1ccc(Br)cc1-c1nc2ncccn2c1Nc1ccccn1 [DH381-2, 4-bromo-2-(3-(pyridin-2-ylamino)imidazo[1,2-a]pyrimidin-2-yl)phenol] | significantly increased cell viability | protected | protected | protected | enhanced | enhanced | protected | improved mitochondrial function | increased ATP production | not affected |  | 
2 | CCc1cccc(C)c1Nc1c(-c2cc(Br)ccc2O)nc2ccccn12 [DH421, 4-bromo-2-(3-((2-ethyl-6-methylphenyl)amino)imidazo[1,2-a]pyridin-2-yl)phenol] | significantly increased cell viability | protected | protected | protected | enhanced | enhanced | protected | improved mitochondrial function | increased ATP production | not affected | no effect on cell growth suppression | significantly increased cell viability
